What all share (assay type): cell-based
The subject of experiment [1] is MKN1. The experiment is described as follows: Panel 1 cell viability screen. The following applies: FBXW7 mutant. The protocol: (§1) To support clinical development and identify potential biomarkers of tumor sensitivity or resistance, two large cancer cell line panels (Panel 1, N=653 (McDermott et al. (2007) PNAS 104:19936-19941); Panel 2, N=240 (O'Day et al. (2010) Fourth AACR International Conference on Molecular Diagnostics in Cancer Therapeutic Development)) were treated with MLN4924 and cell viability data (IC50, EC50, and POC—Percentage of Control) were generated.
(§2) Panel 1 (McDermott et al., supra). The cell lines were exposed to three MLN4924 concentrations (20 nM, 200 nM, and 2 μM) for 72 hours. Viability, i.e., cell number, was quantified by measuring fluorescence of a cell-permeant nucleic acid stain. Mean of triplicate values for each sample were taken and compared to DMSO control to calculate percentage of control. In the results, control or no activity value is given a value of about 1, sensitivity is indicated by a value less than 1, with 0 as death of the entire cell population and resistance indicated by a value greater than 1. A continuum of viability values was obtained for each concentration, so some values were selected as cut-offs for final determination of sensitivity or resistance. For example, median POC values of less than the median value of all POC's recorded in the panel (<0.34) indicated sensitivity, values of 0.34 to 0.75 indicated borderline sensitivity, values greater than the 3rd quartile of all POC's in the panel (>0.75) insensitivity or resistance. […] Final judgment of cell line as sensitive, insensitive or resistant was determined by its viability at 2 μM.

Experiment [2] relates to CFPAC-1. The experiment is described as follows: Panel 1 cell viability screen. The following applies: SMAD4 mutant. The procedure:
as §1, §2

Experiment [3] deals with SW 1463. Briefly: Panel 1 cell viability screen. The following applies: SW1463; FBXW7 mutant. The protocol: as §1, §2
Experiment [4] concerns SW620. Briefly: Panel 1 cell viability screen. The following applies: SMAD4 mutant. The protocol:
as §1, §2

Experiment [5] relates to PANC-08-13. The experiment is described as follows: Panel 1 cell viability screen. The following applies: SMAD4 mutant. The procedure:
as §1, §2

In experiment [6] the test system is CAPAN-1. Briefly: Panel 1 cell viability screen. The following applies: SMAD4 mutant. The procedure:
as §1, §2

In experiment [7] the test system is COCM1. The experiment is described as follows: Panel 1 cell viability screen. The following applies: CoCM-1; SMAD4 mutant. The procedure:
as §1, §2

For experiment [8], the system named is RCM-1. Briefly: Panel 1 cell viability screen. The following applies: FBXW7 mutant. The protocol:
as §1, §2

Experiment [9] has as its system HT29. The experiment is described as follows: Panel 1 cell viability screen. The following applies: HT-29; SMAD4 mutant. The procedure:
as §1, §2

The subject of experiment [10] is S-117. Briefly: Panel 1 cell viability screen. The following applies: NF2 mutant. The protocol: as §1, §2
For experiment [11], the system named is AsPC-1. Briefly: Panel 1 cell viability screen. The following applies: FBXW7 mutant. The protocol: as §1, §2
Experiment [12] concerns UMC-11. The experiment is described as follows: Panel 1 cell viability screen. The following applies: SMAD4 mutant. The protocol:
as §1, §2

The subject of experiment [13] is BxPC-3. Briefly: Panel 1 cell viability screen. The following applies: SMAD4 mutant. The protocol: as §1, §2
The subject of experiment [14] is MKN45. The experiment is described as follows: Panel 1 cell viability screen. The following applies: SMAD4 mutant. The protocol:
as §1, §2

For experiment [15], the system named is MDA-MB-231. Briefly: Panel 1 cell viability screen. The following applies: NF2 mutant. The procedure: as §1, §2
For experiment [16], the system named is COLO-678. The experiment is described as follows: Panel 1 cell viability screen. The following applies: SMAD4 mutant. The protocol:
as §1, §2

Experiment [17] relates to SW 1116. Briefly: Panel 2 high-content cell screen. The following applies: Homo sapiens, 72 h, cell number. The procedure: as §1
(§3) Panel 2 (Ricerca Biosciences, Inc., Bothell, Wash.). MLN4924 was added in half-log dilutions for 10 concentrations and treated for 72 hours. High-content cell screening by fluorescence microscopy included image analysis to generate several types of data. Results included EC50 values (after measurement of cell numbers, the EC50 concentration was calculated from the inflection point of a curve of percent of control (POC) against log of MLN4924 concentration), IC50 values (from the POC-log MLN4924 plot, IC50 is the concentration at 50% maximal possible response), apoptosis (measurement of activation of caspase 3 plotted against log of MLN4924 concentration, determined as the concentration for >5 fold induction), and mitotic activity (determined by measuring the fold increase of phospho-histone 3). A comparison of EC50 to IC50 (FIG. 3) allowed assignment of cell lines to sensitive, insensitive or resistant. Final identification of a cell line as sensitive or resistant was based on the EC50 values. The cutoff for sensitivity is a median EC50 of less than the median value of all POC's recorded in the panel (<0.36), borderline sensitivity was associated with median EC50 of 0.36 to 1.67 and insensitive or resistant cell lines were identified by EC50 greater than the 3rd quartile of all POC's in the panel (>1.67).

For experiment [18], the system named is NCI-H520. Briefly: Panel 2 high-content cell screen. The following applies: Homo sapiens, 72 h, cell number. The procedure: as §1, §3
The test system of experiment [19] is SK-OV-3. The experiment is described as follows: Panel 2 high-content cell screen. The following applies: Homo sapiens, 72 h, cell number. The procedure: as §1, §3
The subject of experiment [20] is p21 in TP53−/− HCT-116 cells. The experiment is described as follows: Western blots of p21. For orientation: A western blot detects proteins with antibodies after separation by electrophoresis.

For orientation: EC50 means the midpoint of the concentration-response curve. Low values mean an effect from little substance, high ones a need for much substance. As for `NS(=O)(=O)OC[C@@H]1C[C@@H](n2ccc3c(N[C@H]4CCc5ccccc54)ncnc32)C[C@@H]1O` [MLN4924, ((1S,2S,4R)-4-{4-[(1S)-2,3-dihydro-1H-inden-1-ylamino]-7H-pyrrolo[2,3-d]pyrimidin-7-yl}-2-hydroxycyclopentyl)methyl sulphamate], the Phenotype entry in [1] is on record as “insensitive”; in experiment [2], “sensitive?”; in experiment [3], “resistant”; in experiment [4], “insensitive”; in [5] it was “resistant”; in experiment [6], “sensitive?”. The Phenotype result in experiment [7] is reported as “resistant”; in experiment [8], “resistant”; in experiment [9], “insensitive”; in [10], “resistant”; in [11], “resistant”; in [12], “insensitive”. The Phenotype entry is given as “insensitive” in [13], “insensitive” in experiment [14], “insensitive” in experiment [15] and “resistant” in [16]. In addition, the EC50 in experiment [17] is not below 10 µM; in experiment [18], 0.261 µM; in experiment [19], not below 10 µM. In addition, the “p21 (Western blots)” value in [20] is “still up-regulated”.
